Results published in PMC9649909, “Wnt-pathway inhibitors with selective activity against triple-negative breast cancer: From thienopyrimidine to quinazoline inhibitors” (Frontiers in Pharmacology, 2022).
Read-outs that look alike come from different tables or passages of the source. One block for each compound: values may come before it.

Key:
[1] = tested on: non-cancerous breast epithelial cell line MCF10a; assay: MTT survival assay MCF10a; assay type: cell-based; conditions: for IC50: Homo sapiens, MCF-10A; for selectivity over the control cells (difference in IC50, MCF10a vs HCC1395): MTT IC50 ratio MCF10a / HCC1395
Description: (§1) Indicated TNBC cell lines were detached and resuspended at 120,000 cells/ml and added into each well of a transparent 384-well plate in the final volume of 20 µl/well. The cells were maintained in DMEM containing 10% FBS at 37°C, 5% CO2 overnight. Next day, the medium in each well was replaced by 40 μl of the fresh one containing the indicated concentrations of compounds. In case of drug combination experiments, each compound dilution was delivered in corresponding well in 20 μl of medium. […] After incubation for 3–4 days, depending on the cell line, the medium in each well was replaced by 25 μl of 0.5 mg/ml Thiazolyl blue solution in 1xPBS following by incubation for 3 h at 37°C. Then the solution was removed and 25 μl DMSO was added into each well. Absorbance at 510 nm was measured in a Tecan Infinite M200 PRO plate reader.

[2] = tested on: β-catenin-dependent Wnt-pathway; assay: TopFlash luciferase reporter assay, CHIR99021-stimulated, HCC1395; assay type: cell-based; conditions: for Emax / IC50: Homo sapiens; for Emax: read-out: HCC1395 TopFlash Efficacy; for IC50: read-out: HCC1395 TopFlash IC50
From the text: Both stimulations abolish formation of the destruction complex, a multiprotein complex consisting of Axin, adenomatous polyposis coli (APC), glycogen synthase kinase three beta (GSK3β), and casein kinase one alpha (CK1α). Upon inactivation of the complex, β-catenin accumulates in the cytoplasm and translocates into the nucleus where it interacts with transcription factors. These downstream events are quantified by a Luciferase transcription-based readout assay (TopFlash assay).

[3] = tested on: MDA-MB-231 TNBC cell line; assay: MTT survival assay MDA-MB-231; assay type: cell-based; conditions: for IC50: Homo sapiens
Description: as §1

[4] = tested on: HCC1395 TNBC cell line; assay: MTT survival assay HCC1395; assay type: cell-based; conditions: Homo sapiens, HCC1395
Description: as §1

[5] = tested on: MDA-MB-468 TNBC cell line; assay: MTT survival assay MDA-MB-468; assay type: cell-based; conditions: Homo sapiens, MDA-MB-468; Table S2
Description: as §1

[6] = tested on: HCC1806 TNBC cell line; assay: MTT survival assay HCC1806; assay type: cell-based; conditions: Homo sapiens, HCC1806
Description: as §1

[7] = tested on: BT-20 TNBC cell line; assay: MTT survival assay BT-20; assay type: cell-based; conditions: Homo sapiens, BT-20
Description: as §1

[8] = in vitro; conditions: human
Description: (§2) The simplicity of the scaffold combined with synthetic accessibility allows building a library of compounds and performing structure activity relationship (SAR) studies of the three main parts of the molecule: the top part, the linker and the core (Figure 2).
(§3) The synthesized compounds were used to explore SAR of three defined areas of investigation (Figure 2). All compounds were tested in the HCC1395 TNBC cell line using the GSK3β inhibitor to induce β-catenin signaling since 4a acted downstream of GSK3β (Figure 2). Both inhibition of β-catenin signaling measured by the TopFlash reporter and cytotoxicity measured by the Renilla reporter were assessed.
(§4) The Wnt3a or CHIR99021-stimulated luciferase activity in HCC1395 TNBC cell line stably transfected with the TopFlash reporter was analyzed essentially as described for the BT-20 TNBC cell line ([Shaw et al., 2019b]; [Koval et al., 2021]). Reporter cells were seeded at 10,000 cells/well in a white opaque 384-well plate in the final volume of 20 μl of DMEM medium supplemented with 10% FCS. The cells were maintained incubated at 37°C, 5% CO2 overnight for attachment. Subsequently, they were transfected by a plasmid encoding constitutively expressed Renilla luciferase under the CMV promoter overall as described in the manufacturer’s protocol using 12 μg/ml of DNA and 40 μl/ml XtremeGENE nine reagent. The next day, the medium in each well was replaced with a 10 μl of fresh medium containing compound of interest, and, after 1 h of preincubation with the compounds, additional 10 μl of medium supplemented with Wnt3a [purified as described ([Willert et al., 2003]; [Koval and Katanaev, 2011])] or CHIR99021 were added creating respective final concentrations of 2.5 μg/ml or 5 μM of each. In case of other signal transduction reporters, no additional stimulation was performed. Compound dilutions were prepared by serial dilution in DMSO and diluted with the amount of medium necessary to obtain their final concentrations indicated on the figures and tables and maintain concentration of DMSO of 0.5% in all assay points. After overnight incubation, the supernatant in each well was removed, and the luciferase activity was measured as described ([Dyer et al., 2000]; [Huber et al., 2021]; [Pellissier et al., 2021]). The culture medium was completely removed from all wells of the plate. Finally, the luciferase activity of the firefly and Renilla luciferases was detected sequentially in individual wells of a 384-well plate through injection of corresponding measurement solutions and immediate reading (400 ms integration time) in Infinite M Plex multifunctional plate reader with injection module.

[9] = tested on: HCC1395 cells; assay: in vitro
Description: as §2, §3, §4

[10] = Table S2, read-out: MTT MCF10 IC50
[11] = HCC1395, stimulation with CHIR99021 (GSK3β inhibitor)
[12] = HCC1395, HCC1395, stimulation with CHIR99021 (GSK3β inhibitor)
[13] = MDA-MB-231, Table S2, read-out: MTT MDA-MB-231 IC50
[14] = Table S2, read-out: MTT HCC-1395 IC50
[15] = Table S2, read-out: MTT HCC1806 IC50
[16] = Table S2, read-out: MTT BT-20 IC50
[17] = MDA-MB-231, Figure 3B heatmap, read-out: IC50, μM (MDA-MB-231)

SMILES: Clc1ccc(CNc2ncnc3ccccc23)cc1 [Compound 9e, N-(4-chloro)quinazolin-4-amine]
IC50 [1, 10]: > 10 µM
Emax [2, 11]: 96 ± 5.7%
IC50 [2, 11]: 2.18 ± 0.85 µM
IC50 ([3]; MDA-MB-231, read-out: IC50, μM (MDA-MB-231)): > 10 µM
IC50 [3, 13]: 26.9 µM
MTT MDA-MB-231 plateau ([3]; Table S2): 100
IC50 [4, 14]: 0.92 µM
IC50 [5]: 2220 nM
IC50 [6, 15]: 11.4 µM
IC50 [7, 16]: 9.6 µM
IC50 [8]: > 50 µM

SMILES: Clc1ccccc1CCNc1ncnc2sccc12 [Compound 5k, N-(2-chlorophenethyl)thieno[2,3-d]pyrimidin-4-amine]
IC50 [1, 10]: 43.6 µM
Emax [2, 12]: 93.2 ± 10.6%
IC50 [2, 12]: 42.9 ± 50.2 µM
IC50 [3, 17]: > 10 µM
IC50 [3, 13]: > 50 µM
IC50 [4, 14]: 4.24 µM
IC50 [5]: > 50000 nM
IC50 [6, 15]: > 50 µM
IC50 [7, 16]: > 50 µM
IC50 ([8]; HCC1395 Cytotoxicity IC50): > 50 µM
GSK HCC1395 Renilla Comments [9]: Non-toxic

SMILES: c1ccc(CCCNc2ncnc3sccc23)cc1 [Compound 5h, N-(3-phenylpropyl)thieno[2,3-d]pyrimidin-4-amine]
IC50 ([1]; Figure 3B heatmap, read-out: IC50, μM (MCF10)): > 10 µM
IC50 [1, 10]: > 50 µM
selectivity over the control cells (difference in IC50, MCF10a vs HCC1395) [1]: less than 3 fold
TopFlash activity in words ([2]; HCC1395, CHIR99021): inactive
IC50 [2, 12]: > 50 µM
IC50 [3, 17]: > 10 µM
IC50 [3, 13]: > 50 µM
IC50 ([4]; MTT, Figure 3B heatmap and text, read-out: IC50, μM (HCC1395)): > 50 µM
IC50 [5]: > 50000 nM
IC50 ([6]; Figure 3B heatmap, read-out: IC50, μM (HCC1806)): > 10 µM
IC50 [6, 15]: 37.1 µM
IC50 ([7]; Figure 3B heatmap, no activity up to maximal tested concentration, read-out: IC50, μM (BT20)): > 50 µM
IC50 [7, 16]: 36.8 µM
IC50 ([8]; HCC1395 Cytotoxicity IC50): > 50 µM
GSK HCC1395 Renilla Comments [9]: Non-toxic

Now from value to compound, other results behind:

IC50 [2, 12]: 2.04 ± 2.55 µM
SMILES: CN(CCc1ccccc1)c1ncnc2sccc12 [Compound 5j, N-methyl-N-phenethylthieno[2,3-d]pyrimidin-4-amine]
IC50 [1, 10]: 1.53 µM
selectivity over the control cells (difference in IC50, MCF10a vs HCC1395) [1]: less than 3 fold
HCC1395 TopFlash Efficacy [2, 11]: 100 ± 0%
Emax [2, 12]: 100%
IC50 [3, 13]: 4.71 µM
MTT MDA-MB-231 plateau ([3]; Table S2): 92.68
IC50 [4, 14]: 2.07 µM
IC50 [5]: 920 nM
IC50 [6, 15]: 17.2 µM
IC50 [7, 16]: 1.63 µM
IC50 ([8]; HCC1395 Cytotoxicity IC50): > 50 µM

IC50 [2, 12]: 4.61 ± 1.91 µM
SMILES: Cc1ccc(CNc2ncnc3sccc23)cc1 [Compound 4o, N-(4-methylbenzyl)thieno[2,3-d]pyrimidin-4-amine]
IC50 [1, 10]: 6.18 µM
Emax [2, 12]: 72.7 ± 19.5%
fold improvement in the activity compared to 4a ([2]; TopFlash IC50 vs 4a): 2 fold
IC50 [3, 13]: > 10 µM
MTT MDA-MB-231 Comments ([3]; Table S2): Inactive
IC50 [4, 14]: 1.35 µM
IC50 [5]: 1020 nM
IC50 [6, 15]: 2.71 µM
IC50 [7, 16]: 2.85 µM
IC50 ([8]; HCC1395 Cytotoxicity IC50): > 50 µM
